# Patent US5679640A, “Immunosuppressant peptides” (priority 1995, dated 1997)
# Non-standard residues stand in square brackets, D forms with d. Residues, ends and D or L forms follow the SMILES beside them. Hyp = O=C(O)[C@@H]1C[C@@H](O)CN1; Cha = N[C@@H](CC1CCCCC1)C(=O)O
# What was measured:
# [1] = test system: DR4w14; assay: DR-peptide binding assay, DR4w14; set-up: species or system human; conditions: Table 3, […]
# [2] = molecular target: T1, HLA-DR1 (Homo sapiens, UniProt P01903+P01911, A100R/D57E/F55L/F60I/F76Y/I96L/L162R/M171V/P40L/Q125E/R42F/V115G/Y59C); assay: DR-peptide binding assay, DR1; conditions: Table 3, binding affinity relative to HA 307-319 = 1
# T1 construct: EBV-transformed homozygous cell lines were used as a source of DR molecules; endogenous in cells; host or cells: LG-2 (EBV-transformed human B cell line, DR1 homozygous); lysate purified on a monoclonal antibody LB3.1 column
# [3] = molecular target: T2, DR4w4 (Homo sapiens, UniProt P01903+P01911, A100K/A169T/F76Y/I96L/K127E/L162R/M171V/N62H/P40V/Q125Y/R42H/S133A/S149N/S66Y/V115G/V209L/W38E); assay: DR-peptide binding assay, DR4w4; conditions: Table 3, binding affinity relative to HA 307-319 = 1
# T2 construct: EBV-transformed homozygous cell lines were used as a source of DR molecules; endogenous in cells; host or cells: Preiss or Beh (EBV-transformed human B cell lines, DR4 Dw4 homozygous); lysate purified on a monoclonal antibody LB3.1 column
Structure (SMILES),MHC Binding Assay DR4w14 [1],MHC Binding Assay DR1 [2],MHC Binding Assay DR4w4 [3]
C[C@H](NC(=O)[C@H](N)Cc1ccc(O)cc1)C(=O)N[C@@H](C)C(=O)N[C@@H](CC1CCCCC1)C(=O)N[C@@H](C)C(=O)N[C@@H](C)C(=O)N[C@@H](C)C(=O)N[C@@H](C)C(=O)N1C[C@H](O)C[C@H]1C(=O)N[C@@H](CCCCN)C(=O)N[C@@H](C)C(=O)N[C@@H](C)C(=O)N[C@@H](C)C(=O)N[C@H](C)C(N)=O [yAAXAAAABKAAAa-NH2] (H-[dY]AA[Cha]AAAA[Hyp]KAAA[dA]-NH2),++ (affinity greater than 1.0),++ (affinity greater than 1.0),++ (affinity greater than 1.0)
CC(C)C[C@H](NC(=O)[C@@H](NC(=O)[C@@H](NC(=O)[C@H](CCC(N)=O)NC(=O)[C@H](CCCNC(=N)N)NC(=O)[C@H](CCC(N)=O)NC(=O)[C@H](Cc1ccccc1)NC(=O)[C@H](C)NC(=O)[C@H](C)NC(=O)[C@H](N)Cc1ccc(O)cc1)[C@@H](C)O)[C@@H](C)O)C(=O)N[C@@H](CCCCN)C(=O)N[C@@H](C)C(=O)N[C@@H](C)C(=O)N[C@H](C)C(N)=O (H-[dY]AAFQRQTTLKAA[dA]-NH2),++ (affinity greater than 1.0),++ (affinity greater than 1.0),++ (affinity greater than 1.0)
CC(=O)N[C@H](C)C(=O)N[C@@H](C)C(=O)N[C@@H](Cc1ccccc1)C(=O)N[C@@H](C)C(=O)N[C@@H](C)C(=O)N[C@@H](C)C(=O)N[C@@H](CCCCN)C(=O)N[C@H](C(=O)N[C@@H](C)C(=O)N[C@@H](C)C(=O)N[C@@H](C)C(=O)N[C@@H](Cc1ccccc1)C(=O)N[C@H](C)C(N)=O)[C@@H](C)O (Ac-[dA]AFAAAKTAAAF[dA]-NH2),++ (affinity greater than 1.0),++ (affinity greater than 1.0),++ (affinity greater than 1.0)
C[C@H](NC(=O)[C@H](N)Cc1ccc(O)cc1)C(=O)N[C@@H](C)C(=O)N[C@@H](Cc1ccccc1)C(=O)N[C@@H](C)C(=O)N[C@@H](C)C(=O)N[C@@H](C)C(=O)N[C@@H](C)C(=O)N[C@H](C(=O)N[C@@H](C)C(=O)N[C@@H](CCCCN)C(=O)N[C@@H](C)C(=O)N[C@@H](C)C(=O)N[C@H](C)C(N)=O)[C@@H](C)O (H-[dY]AAFAAAATAKAA[dA]-NH2),++ (affinity greater than 1.0),++ (affinity greater than 1.0),++ (affinity greater than 1.0)
CC(C)C[C@H](NC(=O)[C@@H](NC(=O)[C@H](C)NC(=O)[C@H](C)NC(=O)[C@H](C)NC(=O)[C@H](C)NC(=O)[C@H](Cc1ccccc1)NC(=O)[C@H](C)NC(=O)[C@H](C)NC(=O)[C@H](N)Cc1ccc(O)cc1)[C@@H](C)O)C(=O)N[C@@H](CCCCN)C(=O)N[C@@H](C)C(=O)N[C@@H](C)C(=O)N[C@H](C)C(N)=O (H-[dY]AAFAAAATLKAA[dA]-NH2),++ (affinity greater than 1.0),++ (affinity greater than 1.0),++ (affinity greater than 1.0)
C[C@H](NC(=O)[C@H](C)NC(=O)[C@H](C)NC(=O)[C@@H](NC(=O)[C@H](CCCCN)NC(=O)[C@H](C)NC(=O)[C@H](C)NC(=O)[C@H](C)NC(=O)[C@H](CC1CCCCC1)NC(=O)[C@H](C)NC(=O)[C@@H](C)N)[C@@H](C)O)C(=O)N[C@@H](C)C(=O)N[C@H](C)C(N)=O [aAXAAAKTAAAAa-NH2],++ (affinity greater than 1.0),++ (affinity greater than 1.0),++ (affinity greater than 1.0)
CC(C)C[C@H](NC(=O)[C@@H](NC(=O)[C@@H](NC(=O)[C@H](CCC(N)=O)NC(=O)[C@H](CCCNC(=N)N)NC(=O)[C@H](CCC(N)=O)NC(=O)[C@H](Cc1ccccc1)NC(=O)[C@H](C)NC(=O)[C@H](C)NC(=O)[C@H](N)Cc1ccc(O)cc1)[C@@H](C)O)[C@@H](C)O)C(=O)N[C@@H](CCCCN)C(=O)N[C@@H](C)C(=O)N[C@@H](C)C(=O)N[C@H](C)C(=O)O (H-[dY]AAFQRQTTLKAA[dA]-OH),++ (affinity greater than 1.0),++ (affinity greater than 1.0),++ (affinity greater than 1.0)
CC(C)C[C@H](NC(=O)[C@@H](NC(=O)[C@H](CCCCN)NC(=O)[C@H](C)NC(=O)[C@H](C)NC(=O)[C@H](C)NC(=O)[C@H](Cc1ccccc1)NC(=O)[C@H](C)NC(=O)[C@H](C)NC(=O)[C@H](N)Cc1ccc(O)cc1)[C@@H](C)O)C(=O)N[C@@H](C)C(=O)N[C@@H](C)C(=O)N[C@@H](C)C(=O)N[C@H](C)C(N)=O (H-[dY]AAFAAAKTLAAA[dA]-NH2),++ (affinity greater than 1.0),++ (affinity greater than 1.0),++ (affinity greater than 1.0)
CC(C)C[C@H](NC(=O)[C@@H](NC(=O)[C@H](C)NC(=O)[C@H](C)NC(=O)[C@H](C)NC(=O)[C@H](C)NC(=O)[C@H](CC1CCCCC1)NC(=O)[C@H](C)NC(=O)[C@@H](C)N)[C@@H](C)O)C(=O)N[C@@H](CCCCN)C(=O)N[C@@H](C)C(=O)N[C@@H](C)C(=O)N[C@H](C)C(N)=O [aAXAAAATLKAAa-NH2],++ (affinity greater than 1.0),++ (affinity greater than 1.0),++ (affinity greater than 1.0)
CC(C)C[C@H](NC(=O)[C@@H](NC(=O)[C@H](C)NC(=O)[C@H](C)NC(=O)[C@H](CCCCN)NC(=O)[C@H](C)NC(=O)[C@H](Cc1ccccc1)NC(=O)[C@H](C)NC(=O)[C@@H](C)N)[C@@H](C)O)C(=O)N[C@@H](CCCCN)C(=O)N[C@@H](C)C(=O)N[C@@H](C)C(=O)N[C@H](C)C(N)=O (H-[dA]AFAKAATLKAA[dA]-NH2),++ (affinity greater than 1.0),++ (affinity greater than 1.0),++ (affinity greater than 1.0)
C[C@H](NC(=O)[C@H](C)NC(=O)[C@H](CCCCN)NC(=O)[C@H](C)NC(=O)[C@H](Cc1ccccc1)NC(=O)[C@H](C)NC(=O)[C@@H](C)N)C(=O)N[C@H](C(=O)N[C@@H](C)C(=O)N[C@@H](CCCCN)C(=O)N[C@@H](C)C(=O)N[C@@H](C)C(=O)N[C@H](C)C(N)=O)[C@@H](C)O (H-[dA]AFAKAATAKAA[dA]-NH2),++ (affinity greater than 1.0),++ (affinity greater than 1.0),++ (affinity greater than 1.0)

# The next lines start with the values.
MHC Binding Assay DR4w14 [1],MHC Binding Assay DR1 [2],MHC Binding Assay DR4w4 [3],Structure (SMILES)
++ (affinity greater than 1.0),++ (affinity greater than 1.0),++ (affinity greater than 1.0),CC(C)C[C@H](NC(=O)[C@@H](NC(=O)[C@H](C)NC(=O)[C@H](C)NC(=O)[C@H](C)NC(=O)[C@H](C)NC(=O)[C@H](Cc1ccccc1)NC(=O)[C@H](C)NC(=O)[C@@H](C)N)[C@@H](C)O)C(=O)N[C@@H](CCCCN)C(=O)N[C@@H](C)C(=O)N[C@@H](C)C(=O)N[C@H](C)C(N)=O (H-[dA]AFAAAATLKAA[dA]-NH2)
++ (affinity greater than 1.0),++ (affinity greater than 1.0),++ (affinity greater than 1.0),CC(C)C[C@H](NC(=O)[C@@H](NC(=O)[C@H](CCCCN)NC(=O)[C@H](C)NC(=O)[C@H](C)NC(=O)[C@H](C)NC(=O)[C@H](Cc1ccccc1)NC(=O)[C@H](C)NC(=O)[C@@H](C)N)[C@@H](C)O)C(=O)N[C@@H](C)C(=O)N[C@@H](C)C(=O)N[C@@H](C)C(=O)N[C@H](C)C(N)=O (H-[dA]AFAAAKTLAAA[dA]-NH2)
++ (affinity greater than 1.0),++ (affinity greater than 1.0),++ (affinity greater than 1.0),C[C@H](NC(=O)[C@H](C)NC(=O)[C@H](C)NC(=O)[C@H](Cc1ccccc1)NC(=O)[C@H](C)NC(=O)[C@@H](C)N)C(=O)N[C@@H](C)C(=O)N[C@H](C(=O)N[C@@H](C)C(=O)N[C@@H](CCCCN)C(=O)N[C@@H](C)C(=O)N[C@@H](C)C(=O)N[C@H](C)C(N)=O)[C@@H](C)O (H-[dA]AFAAAATAKAA[dA]-NH2)
++ (affinity greater than 1.0),++ (affinity greater than 1.0),++ (affinity greater than 1.0),C[C@H](NC(=O)[C@H](C)NC(=O)[C@H](C)NC(=O)[C@@H](NC(=O)[C@H](CCCCN)NC(=O)[C@H](C)NC(=O)[C@H](C)NC(=O)[C@H](C)NC(=O)[C@H](Cc1ccccc1)NC(=O)[C@H](C)NC(=O)[C@@H](C)N)[C@@H](C)O)C(=O)N[C@@H](C)C(=O)N[C@H](C)C(N)=O (H-[dA]AFAAAKTAAAA[dA]-NH2)
++ (affinity greater than 1.0),++ (affinity greater than 1.0),++ (affinity greater than 1.0),C[C@H](NC(=O)[C@H](C)NC(=O)[C@H](C)NC(=O)[C@H](Cc1ccccc1)NC(=O)[C@H](C)NC(=O)[C@@H](C)N)C(=O)N[C@@H](C)C(=O)N[C@H](C(=O)N[C@@H](C)C(=O)N[C@@H](CCCCN)C(=O)N[C@@H](C)C(=O)N[C@@H](C)C(=O)N[C@H](C)C(=O)O)[C@@H](C)O (H-[dA]AFAAAATAKAA[dA]-OH)
